These results are taken from patent US20080306056A1, “PYRAZOLE-DERIVATIVES AS FACTOR Xa INHIBITORS” (SANOFI-AVENTIS DEUTSCHLAND GMBH, priority 2002, published 2008).

The target of this assay is T1, human factor Xa (Homo sapiens, UniProt P00742).
T1 construct: 25 μl human factor Xa (Enzyme Research Laboratories, Inc; South Bend, Ind.); purchased Enzyme Research Laboratories, Inc; South Bend, Ind
T1 sequence (P00742 235-488 limits assumed): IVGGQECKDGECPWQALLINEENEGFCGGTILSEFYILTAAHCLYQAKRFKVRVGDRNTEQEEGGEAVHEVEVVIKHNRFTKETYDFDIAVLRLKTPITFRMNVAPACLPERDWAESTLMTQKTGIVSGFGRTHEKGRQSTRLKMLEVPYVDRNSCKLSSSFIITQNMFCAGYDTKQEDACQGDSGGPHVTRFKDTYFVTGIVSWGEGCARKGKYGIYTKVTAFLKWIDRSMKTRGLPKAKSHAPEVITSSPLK
T1 sequence (P00742 41-179 partner limits assumed): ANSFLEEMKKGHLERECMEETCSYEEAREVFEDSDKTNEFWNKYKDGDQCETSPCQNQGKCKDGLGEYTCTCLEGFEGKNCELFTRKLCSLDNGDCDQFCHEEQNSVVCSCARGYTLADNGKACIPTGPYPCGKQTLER
Put plainly: Factor Xa assay (chromogenic, purified enzyme). The following applies: inhibition constant for factor Xa; chromogenic substrate S-2765 140 μM, enzyme 0.5 nM, 25° C., pH 7.8; Ki=IC50/{1+(substrate concentration/Km)}; read-out: Ki(FXa). Type of assay: biochemical. The procedure, abridged: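 Human factor Xa (0.5 nM) pre-incubated 10 min with compound in TBS-PEG/DMSO, then S-2765 (140 μM) added; initial hydrolysis rate read at 405 nm, 25°C. IC50 by linear regression of relative rate vs log concentration; Ki = IC50/(1+[S]/Km).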
A word on the Ki: it is a dissociation constant, usually derived from enzyme kinetics or from competition with a known ligand. With `CC(C)N1CCC(NC(=O)c2cc(C(=O)NCCN3CCOCC3)nn2Cc2cc(-c3ccc(Cl)s3)on2)CC1` [Example 70, 1-[5-(5-Chloro-thiophen-2-yl)-isoxazol-3-ylmethyl]-1H-pyrazole-3,5-dicarboxylic acid 5-[(1-isopropyl-piperidin-4-yl)-amide] 3-[(2-morpholin-4-yl-ethyl)-amide]], the Ki stood at 0.182 µM.

Consider `CC(C)N1CCC(NC(=O)c2cc(C(=O)N3CCC(F)(F)CC3)nn2Cc2cc(-c3ccc(Cl)s3)on2)CC1` [Example 71, 2-[5-(5-Chloro-thiophen-2-yl)-isoxazol-3-ylmethyl]-5-(4,4-difluoro-piperidine-1-carbonyl)-2H-pyrazole-3-carboxylic acid (1-isopropyl-piperidin-4-yl)-amide], for which the Ki amounted to 0.184 µM.

For `CC(C)N1CCC(NC(=O)c2cc(C(=O)N3CCOC3=O)nn2Cc2cc(-c3ccc(Cl)s3)on2)CC1` [Example 72, 2-[5-(5-Chloro-thiophen-2-yl)-isoxazol-3-ylmethyl]-5-(2-oxo-oxazolidine-3-carbonyl)-2H-pyrazole-3-carboxylic acid (1-isopropyl-piperidin-4-yl)-amide], the Ki worked out at 0.092 µM.

As for `CC(C)N1CCC(NC(=O)c2cc(C(=O)NCCN3CCNC3=O)nn2Cc2cc(-c3ccc(Cl)s3)on2)CC1` [Example 73, 1-[5-(5-Chloro-thiophen-2-yl)-isoxazol-3-ylmethyl]-1H-pyrazole-3,5-dicarboxylic acid 5-[(1-isopropyl-piperidin-4-yl)-amide] 3-{[2-(2-oxo-imidazolidin-1-yl)-ethyl]-amide}], the Ki stood at 0.083 µM.

With `CC(C)N1CCC(NC(=O)c2cc(C(=O)NCC(F)(F)F)nn2Cc2cc(-c3ccc(Cl)s3)on2)CC1` [Example 74, 1-[5-(5-Chloro-thiophen-2-yl)-isoxazol-3-ylmethyl]-1H-pyrazole-3,5-dicarboxylic acid 5-[(1-isopropyl-piperidin-4-yl)-amide] 3-[(2,2,2-trifluoro-ethyl)-amide]], the Ki is 0.086 µM.

`CC(C)N1CCC(NC(=O)c2cc(C(=O)NC3CCS(=O)(=O)C3)nn2Cc2cc(-c3ccc(Cl)s3)on2)CC1` (stereo not shown) [Example 75, 1-[5-(5-Chloro-thiophen-2-yl)-isoxazol-3-ylmethyl]-1H-pyrazole-3,5-dicarboxylic acid 3-[(1,1-dioxo-tetrahydro-1-thiophen-3-yl)-amide] 5-[(1-isopropyl-piperidin-4-yl)-amide]]: the Ki turned out to be 0.076 µM.

As to `CC(C)N1CCC(NC(=O)c2cc(C(=O)NCCCN3CCCC3=O)nn2Cc2cc(-c3ccc(Cl)s3)on2)CC1` [Example 76, 1-[5-(5-Chloro-thiophen-2-yl)-isoxazol-3-ylmethyl]-1H-pyrazole-3,5-dicarboxylic acid 5-[(1-isopropyl-piperidin-4-yl)-amide] 3-{[3-(2-oxo-pyrrolidin-1-yl)-propyl]-amide}], the Ki worked out at 0.083 µM.

On to `CC(C)N1CCC(NC(=O)c2cc(C(=O)N3CCC3)nn2Cc2cc(-c3ccc(Cl)s3)on2)CC1` [Example 77, 5-(Azetidine-1-carbonyl)-2-[5-(5-chloro-thiophen-2-yl)-isoxazol-3-ylmethyl]-2H-pyrazole-3-carboxylic acid (1-isopropyl-piperidin-4-yl)-amide], for which the Ki came to 0.063 µM.

As for `CC(C)N1CCC(NC(=O)c2cc(C(=O)N3CCSC3)nn2Cc2cc(-c3ccc(Cl)s3)on2)CC1` [Example 78, 2-[5-(5-Chloro-thiophen-2-yl)-isoxazol-3-ylmethyl]-5-(thiazolidine-3-carbonyl)-2H-pyrazole-3-carboxylic acid (1-isopropyl-piperidin-4-yl)-amide], the Ki worked out at 0.144 µM.

With `CC(C)N1CCC(NC(=O)c2cc(C(=O)NC(C(=O)O)C(F)(F)F)nn2Cc2cc(-c3ccc(Cl)s3)on2)CC1` (stereo not shown) [Example 79, 2-{[1-[5-(5-Chloro-thiophen-2-yl)-isoxazol-3-ylmethyl]-5-(1-isopropyl-piperidin-4-ylcarbamoyl)-1H-pyrazole-3-carbonyl]-amino}-3,3,3-trifluoro-propionic acid], the Ki was 0.08 µM.

For the compound `CC(C)N1CCC(NC(=O)c2cc(C(=O)NC[Si](C)(C)C)nn2Cc2cc(-c3ccc(Cl)s3)on2)CC1` [Example 80, 1-[5-(5-Chloro-thiophen-2-yl)-isoxazol-3-ylmethyl]-1H-pyrazole-3,5-dicarboxylic acid 5-[(1-isopropyl-piperidin-4-yl)-amide] 3-trimethylsilanylmethyl-amide], the Ki was found to be 0.149 µM.

As to `CC(C)N1CCC(NC(=O)c2cc(C(=O)N3CCC(N4CCCC4=O)CC3)nn2Cc2cc(-c3ccc(Cl)s3)on2)CC1` [Example 81, 2-[5-(5-Chloro-thiophen-2-yl)-isoxazol-3-ylmethyl]-5-[4-(2-oxo-pyrrolidin-1-yl)-piperidine-1-carbonyl]-2H-pyrazole-3-carboxylic acid (1-isopropyl-piperidin-4-yl)-amide], the Ki is 0.142 µM.

As for `CC(C)N1CCC(NC(=O)c2cc(C(=O)NS(C)(=O)=O)nn2Cc2cc(-c3ccc(Cl)s3)on2)CC1` [Example 82, 2-[5-(5-Chloro-thiophen-2-yl)-isoxazol-3-ylmethyl]-5-methanesulfonylaminocarbonyl-2H-pyrazole-3-carboxylic acid (1-isopropyl-piperidin-4-yl)-amide], the Ki is 0.184 µM.

Take `CC(C)N1CCC(NC(=O)c2cc(C(=O)N3CC(O)C3)nn2Cc2cc(-c3ccc(Cl)s3)on2)CC1` [Example 83, 2-[5-(5-Chloro-thiophen-2-yl)-isoxazol-3-ylmethyl]-5-(3-hydroxy-azetidine-1-carbonyl)-2H-pyrazole-3-carboxylic acid (1-isopropyl-piperidin-4-yl)-amide]: the Ki was found to be 0.104 µM.

Regarding `CC(C)N1CCC(NC(=O)c2cc(-c3ccco3)n(Cc3cc(-c4ccc(Cl)s4)on3)n2)CC1` [Example 84, 1-[5-(5-Chloro-thiophen-2-yl)-isoxazol-3-ylmethyl]-5-furan-2-yl-1H-pyrazole-3-carboxylic acid (1-isopropyl-piperidin-4-yl)-amide], the Ki amounted to 0.042 µM.

For `CC(C)N1CCC(NC(=O)c2cc(C(=O)O)n(Cc3cc(-c4ccc(Cl)s4)on3)n2)CC1` [Example 85, 2-[5-(5-Chloro-thiophen-2-yl)-isoxazol-3-ylmethyl]-5-(1-isopropyl-piperidin-4-ylcarbamoyl)-2H-pyrazole-3-carboxylic acid], the Ki was determined as 0.185 µM.

For `CC(C)N1CCC(NC(=O)c2cc(C(=O)N3CCC3)n(Cc3cc(-c4ccc(Cl)s4)on3)n2)CC1` [Example 86, 5-(Azetidine-1-carbonyl)-1-[5-(5-chloro-thiophen-2-yl)-isoxazol-3-ylmethyl]-1H-pyrazole-3-carboxylic acid (1-isopropyl-piperidin-4-yl)-amide], the Ki came out at 0.142 µM.

As to `CC(C)N1CCC(NC(=O)c2cc(C(=O)NCCS(N)(=O)=O)n(Cc3cc(-c4ccc(Cl)s4)on3)n2)CC1` [Example 87, 1-[5-(5-Chloro-thiophen-2-yl)-isoxazol-3-ylmethyl]-1H-pyrazole-3,5-dicarboxylic acid 3-[(1-isopropyl-piperidin-4-yl)-amide] 5-[(2-sulfamoyl-ethyl)-amide]], the inhibition constant Ki stood at 0.181 µM.

With `CC(C)N1CCC(NC(=O)c2cc(C(=O)N(CCO)CCO)nn2Cc2cc(-c3ccc(Cl)s3)on2)CC1` [Example 88, 1-[5-(5-Chloro-thiophen-2-yl)-isoxazol-3-ylmethyl]-1H-pyrazole-3,5-dicarboxylic acid 3-[bis-(2-hydroxy-ethyl)-amide] 5-[(1-isopropyl-piperidin-4-yl)-amide]], the Ki worked out at 0.106 µM.

On to `CC(C)N1CCC(NC(=O)c2cc(C(=O)NC(CO)(CO)CO)nn2Cc2cc(-c3ccc(Cl)s3)on2)CC1` [Example 89, 1-[5-(5-Chloro-thiophen-2-yl)-isoxazol-3-ylmethyl]-1H-pyrazole-3,5-dicarboxylic acid 3-[(2-hydroxy-1,1-bis-hydroxymethyl-ethyl)-amide] 5-[(1-isopropyl-piperidin-4-yl)-amide]], for which the Ki came out at 0.192 µM.

On to `CC(C)OC(=O)CNC(=O)c1cc(C(=O)NC2CCN(C(C)C)CC2)n(Cc2cc(-c3ccc(Cl)s3)on2)n1` [Example 90, {[1-[5-(5-Chloro-thiophen-2-yl)-isoxazol-3-ylmethyl]-5-(1-isopropyl-piperidin-4-ylcarbamoyl)-1H-pyrazole-3-carbonyl]-amino}-acetic acid isopropyl ester], for which the inhibitory constant (Ki) was found to be 0.24 µM.

Regarding `CC(C)OC(=O)CNC(=O)c1cc(C(=O)NC2CCN(C(C)C)CC2)n(CC(=O)Nc2ccc(Cl)cn2)n1` [Example 92, {[1-[(5-Chloro-pyridin-2-ylcarbamoyl)-methyl]-5-(1-isopropyl-piperidin-4-ylcarbamoyl)-1H-pyrazole-3-carbonyl]-amino}-acetic acid isopropyl ester], the Ki was determined as 0.041 µM.

As for `CCOC(=O)CNC(=O)c1cc(C(=O)NC2CCN(C(C)C)CC2)n(CC(=O)Nc2ccc(Cl)cn2)n1` [Example 93, {[1-[(5-Chloro-pyridin-2-ylcarbamoyl)-methyl]-5-(1-isopropyl-piperidin-4-ylcarbamoyl)-1H-pyrazole-3-carbonyl]-amino}-acetic acid ethyl ester], the Ki is 0.036 µM.

With `CC(C)N1CCC(NC(=O)c2cc(C(=O)NCC(=O)O)nn2CC(=O)Nc2ccc(Cl)cn2)CC1` [Example 94, {[1-[(5-Chloro-pyridin-2-ylcarbamoyl)-methyl]-5-(1-isopropyl-piperidin-4-ylcarbamoyl)-1H-pyrazole-3-carbonyl]-amino}-acetic acid], the Ki was found to be 0.023 µM.

For `CC(C)N1CCC(NC(=O)c2cc(C(=O)N3CC(O)C3)nn2CC(=O)Nc2ccc(Cl)cn2)CC1` [Example 95, 2-[(5-Chloro-pyridin-2-ylcarbamoyl)-methyl]-5-(3-hydroxy-azetidine-1-carbonyl)-2H-pyrazole-3-carboxylic acid (1-isopropyl-piperidin-4-yl)-amide], the Ki amounted to 0.039 µM.
